Data taken from CN101069680A, “2-羟基-4-甲基苯磺酸制剂的制备及其应用” (BEIJING HUARUI DINGXIN TECHNOLOGY Co Ltd, priority 2007, dated 2007).

Tests used:
[1] = system: Candida albicans 10 (白色念珠菌10); assay: In vitro antibacterial effect, tube method; design: key: -: 有明显抑菌作用; +: 没有抑菌作用; conditions: 1% solution mixed with MH broth with 5% glucose, 37°C, 24 h
[2] = system: Candida albicans 6 (白色念珠菌6); assay: In vitro antibacterial effect, tube method; design: key: -: 有明显抑菌作用; +: 没有抑菌作用; conditions: 1% solution mixed with MH broth with 5% glucose, 37°C, 24 h
[3] = system: Candida albicans 12 (白色念珠菌12); assay: In vitro antibacterial effect, tube method; design: key: -: 有明显抑菌作用; +: 没有抑菌作用; conditions: 1% solution mixed with MH broth with 5% glucose, 37°C, 24 h
[4] = system: Staphylococcus aureus 9776 (金葡菌9776); assay: In vitro antibacterial effect, tube method; design: key to antibacterial effect: -: 有明显抑菌作用; +: 没有抑菌作用; conditions: 1% solution mixed with MH broth
[5] = system: Enterococcus faecalis 755 (粪肠球菌755); assay: In vitro antibacterial effect, tube method; design: key to antibacterial effect: -: 有明显抑菌作用; +: 没有抑菌作用; conditions: 1% solution mixed with MH broth with 5% defibrinated sheep blood
egg white (蛋清) = assay: Astringent / coagulating effect on protein (precipitation of egg white); design: key to protein precipitation: -: 未见白色沉淀; +: 隐约可见白色沉淀; +: 有少量白色沉淀; ++: 有较多白色沉淀; +++: 有大量白色沉淀; conditions: for protein precipitation: 0.2 ml added to 5 ml of 5% egg white
[6] = system: cervical erosion model rats (宫颈糜烂模型大鼠); assay: Therapeutic effect on cervical erosion model rats: body weight, vagina and cervix weight index, white blood cell count; type: in vivo, rat; conditions: intravaginal, 12 days, positive control 0.02 g/kg, Example 2 gel 0.1048 g/kg
Candida albicans (白色念珠菌) = assay: In vitro antibacterial effect, tube method (summary for the selected strains); conditions: 1% solution mixed with MH broth
[7] = system: Candida albicans 2 (白色念珠菌2); assay: In vitro antibacterial effect, tube method; design: key: -: 有明显抑菌作用; +: 没有抑菌作用; conditions: 1% solution mixed with MH broth with 5% glucose, 37°C, 24 h
[8] = system: Escherichia coli 26 (大肠埃希氏菌26); assay: In vitro antibacterial effect, tube method; design: key to antibacterial effect: -: 有明显抑菌作用; +: 没有抑菌作用; conditions: 1% solution mixed with MH broth
[9] = system: Staphylococcus epidermidis 26069 (表葡菌26069); assay: In vitro antibacterial effect, tube method; design: key to antibacterial effect: -: 有明显抑菌作用; +: 没有抑菌作用; conditions: 1% solution mixed with MH broth
[10] = system: cervical erosion model rats (宫颈糜烂模型大鼠); assay: Therapeutic effect on cervical erosion model rats: degree of cervical inflammation / pathology; type: in vivo, rat; conditions: intravaginal, 12 days, positive control 0.02 g/kg, Example 2 gel 0.1048 g/kg
[11] = system: beta-hemolytic streptococcus 96 (乙型链球菌96); assay: In vitro antibacterial effect, tube method; design: key to antibacterial effect: -: 有明显抑菌作用; +: 没有抑菌作用; conditions: 1% solution mixed with MH broth with 5% defibrinated sheep blood
[12] = number of rats out of 8 per group

In the case of `Cc1ccc(S(=O)(=O)O)c(O)c1` [2-羟基-4-甲基苯磺酸], the antibacterial effect [1] is reported as “-”, the antibacterial effect [2] is reported as “-” and the antibacterial effect [3] is reported as “-”. The “inhibitory effect (in words)” value [4] was “有明显的抑制作用”, the antibacterial effect ([4]; 37°C, 24 h) was “-” and the “antibacterial effect (in words)” value [5] was “没有抑菌作用”. For the same compound, the antibacterial effect ([5]; 37°C, 24 h) was “+”, the “threshold concentration for astringent coagulating effect on protein” value (egg white (蛋清); concentration of the added solution) was 0.39% and the “astringent coagulating effect compared with tannic acid” value (egg white (蛋清); same concentration) was “弱于同浓度的鞣酸”. For the same compound, the protein precipitation (egg white (蛋清); test substance solution 0.098% (tube 10)) was “-”, the protein precipitation (egg white (蛋清); test substance solution 0.195% (tube 9)) was “-” and the protein precipitation (egg white (蛋清); test substance solution 0.78% (tube 7)) was “+”. For the same compound, the protein precipitation (egg white (蛋清); test substance solution 1.56% (tube 6)) was “+”, the protein precipitation (egg white (蛋清); test substance solution 3.125% (tube 5)) was “++” and the protein precipitation (egg white (蛋清); test substance solution 6.25% (tube 4)) was “+++”. For the same compound, the protein precipitation (egg white (蛋清); test substance solution 12.5% (tube 3)) was “+++”, the protein precipitation (egg white (蛋清); test substance solution 25% (tube 2)) was “+++” and the protein precipitation (egg white (蛋清); test substance solution 50% (tube 1)) was “+++”. For the same compound, the “body weight after test” value ([6]; 1 h after last dose, *P<0.05 vs model) was 249.6 ± 26.7 g, the “total white blood cell count” value ([6]; blood, after last dose, *P<0.05, **p<0.01 vs model) was 5.74±0.88 10^9g/L and the “vagina and cervix weight index” value ([6]; *P<0.05 vs model) was 0.268±0.102 g/100g body weight. The “inhibitory effect (in words)” value (Candida albicans (白色念珠菌)) was “有明显的抑制作用”, the antibacterial effect [7] was “-” and the “inhibitory effect (in words)” value [8] was “有明显的抑制作用”. The antibacterial effect ([8]; 37°C, 24 h) was “-”, the “inhibitory effect (in words)” value [9] was “有明显的抑制作用” and the antibacterial effect ([9]; 37°C, 24 h) was “-”. The “Ridit test u value” ([10]; inflammation grade vs model group, * = significant difference) was 2.8146, the “inflammation degree grade: mild” value [10, 12] was 2 and the “inflammation degree grade: moderate” value [10, 12] was 1. The “inflammation degree grade: normal” value [10, 12] was 4, the “inflammation degree grade: severe” value [10, 12] was 1 and the “antibacterial effect (in words)” value [11] was “没有抑菌作用”. For the same compound, the antibacterial effect ([11]; 37°C, 24 h) was “+”.
